Test results: patent publication US20240390369A1, “METHODS FOR DETERMINING RESPONSIVENESS TO TYK2 INHIBITORS” (Bristol-Myers Squibb Company, priority 2021, published 2024)

System: patients with psoriatic arthritis
Test: Phase 2 trial in psoriatic arthritis: ACR20 response at week 16
Format: in vivo, human
Settings: for ACR20 response rate over time: placebo, sixteen-week treatment period; for Odds Ratio, ACR20 response status / Odds Ratio for ACR20 response: All patients
Description: In a double-blind Phase 2 trial, 203 patients with psoriatic arthritis were randomized into three groups: deucravacitinib 6 mg once daily (N=70), deucravacitinib 12 mg once daily (N=67), or placebo (N=66). All subjects had active psoriatic arthritis according to the Classification Criteria for Psoriatic Arthritis (CASPAR); for active disease, these criteria required ≥3 tender joint count, ≥3 swollen joint count, and a C-reactive protein level above 3 mg/L. Other inclusion criteria included the following: presence of at least one plaque psoriasis lesion, and prior treatment failure with a non-biologic disease modifying anti-rheumatic drug, a non-steroidal anti-inflammatory drug, or a steroid. With respect to treatment history, approximately 70% of subjects had not received prior treatment with a biologic and were biologic naïve, while up to 30% of subjects had failed or had been intolerant to one TNF-inhibitor (TNF=Tumor necrosis factor, also known as TNFα). Randomization was stratified by prior TNF-inhibitor use (experienced/naïve) and body weight (<90 kg and ≥90 kg).
Clinical measures included the Psoriasis […] (PASI) score for skin psoriasis, American College of Rheumatology 20 (ACR20) response, Psoriatic Arthritis Disease Activity Score (PASDAS), Health Assessment Questionnaire-Disability Index (HAQ-DI), and Disease Activity Score 28 CRP (DAS28). To evaluate the predictive value of different protein measurements for the clinical response to deucravacitinib, baseline protein concentrations for responders and non-responders, as defined by ACR20 or PASI75 at week 16, were compared for each arm (placebo, 6 mg deucravacitinib once-daily, and 12 mg deucravacitinib once-daily).
Boxplots for baseline protein level by response were generated with a horizontal line indicating the median protein level at baseline. For each treatment arm, a two-sample t-test was performed to test whether mean baseline serum protein level was different in responders versus non-responders. A Wilcoxon rank sum test (Mann-Whitney U test) was also performed to evaluate the difference in median serum protein level between responders and non-responders. Further, barplots of ACR20 and PASI75 response rate at week 16 for each treatment arm were generated for all subjects (protein level high and protein level low subjects, dichotomized according to median baseline level). Line plots of ACR20 and PASI75 response rate over time for each treatment arm were generated for protein level high and protein level low groups. Logistic regression models were also fit to evaluate associations between baseline protein levels and clinical outcome.
For certain analyses described herein, patients were dichotomized by median values (e.g., of the proteins listed above or other measures) into “high” and “low” groups, such that the high group had values above the median and the low group had values less than or equal to the median.
In addition, logistic regression models were fit for response measures ACR20 and PASI75, to generate the odds ratio of each of the deucravacitinib treatment arms versus placebo, in BD2-high and BD2-low groups. The following logistic regression models were used: • For ACR20 response status: ACR20 (Y/N)=treatment arm+BD2 group+treatment arm*BD2 group+TNF-inhibitor use+baseline weight (continuous). • For PASI75 response status: PASI75 (Y/N)=treatment arm+BD2 group+treatment arm*BD2 group+TNF-inhibitor use+baseline weight (continuous). […] FIGS. 26-31 are forest plots summarizing the logistic regression results of these models (for BD2 and other biomarkers described herein); each “N,” for “Placebo” and “Deucrava,” represents the number of responders in that group. […]

[1] = 6 mg QD, Above median baseline CRP level
[2] = 6 mg QD, Below median baseline CRP level
[3] = 12 mg QD, Above median baseline CRP level
[4] = 12 mg QD, Below median baseline CRP level

In the case of `[2H]C([2H])([2H])NC(=O)c1nnc(NC(=O)C2CC2)cc1Nc1cccc(-c2ncn(C)n2)c1OC` [deucravacitinib, 6-(cyclopropanecarboxamido)-4-((2-methoxy-3-(1-methyl-1H-1,2,4-triazol-3-yl)phenyl)amino)-N-(methyl-d3)pyridazine-3-carboxamide], the “Interaction Term for ACR20 response (ratio of odds ratios)” value (6 mg QD vs placebo: BD2 high versus BD2 low, week 16) is reported as 3.16, the “Interaction Term: treatment arm*CRP group, ACR20” value (6 mg QD vs placebo: CRP high versus CRP low) is reported as 0.786 and the “Interaction Term: treatment arm*CRP group, ACR20” value (6 mg QD vs placebo: CRP-high versus CRP-low, adjusted for baseline DAS28) is reported as 0.788. The “Interaction Term for ACR20 response (ratio of odds ratios)” value (6 mg QD vs placebo: IL-17A high versus IL-17A low, week 16) was 3.10, the “Interaction Term for ACR20 response (ratio of odds ratios)” value (6 mg QD vs placebo: IL-19 high versus IL-19 low, week 16) was 3.33 and the “ACR20 response rate over time” value (6 mg QD, 12 mg QD, BD2-high and BD2-low groups (FIG. 10)) was “higher ACR20 response rates to deucravacitinib over time, compared to the response rate in the placebo arm, were observed in the BD2-high group but not in the BD2-low group”. The “ACR20 response rate over time” value (6 mg QD, 12 mg QD, CRP-high and CRP-low groups (FIG. 41)) was “higher response rates than the placebo arm”, the “ACR20 response rate over time” value (6 mg QD, 12 mg QD, IL-17A-high and IL-17A-low groups (FIG. 24)) was “higher ACR20 response rates over time were observed in the deucravacitinib treatment arms compared to placebo in IL-17A-high but not in IL-17A-low groups” and the “ACR20 response rate over time” value (6 mg QD, 12 mg QD, IL-19-high and IL-19-low groups (FIG. 17)) was “higher ACR20 response rates to deucravacitinib over time compared to placebo were observed in IL-19-high but not in IL-19-low groups”. The Number of subjects (6 mg QD, ACR20 non-responder at week 16, above median baseline BD2 level) was 20, the Number of subjects (6 mg QD, ACR20 non-responder at week 16, above median baseline IL-17A level) was 14 and the Number of subjects (6 mg QD, ACR20 non-responder at week 16, above median baseline IL-19 level) was 17. It also gave a Number of subjects (6 mg QD, ACR20 non-responder at week 16, below median baseline BD2 level) of 14, a Number of subjects (6 mg QD, ACR20 non-responder at week 16, below median baseline IL-17A level) of 19 and a Number of subjects (6 mg QD, ACR20 non-responder at week 16, below median baseline IL-19 level) of 16. The Number of subjects (6 mg QD, ACR20 responder at week 16, above median baseline IL-17A level) was 21, the Number of subjects (6 mg QD, ACR20 responder at week 16, above median baseline IL-19 level) was 21 and the Number of subjects (6 mg QD, ACR20 responder at week 16, below median baseline BD2 level) was 7. For the same compound, the Number of subjects (6 mg QD, ACR20 responder at week 16, below median baseline IL-17A level) was 16, the Number of subjects (6 mg QD, ACR20 responder at week 16, below median baseline IL-19 level) was 16 and the “Number of subjects, ACR20 Non-responder at week 16” value [1] was 17. The “Number of subjects, ACR20 Responder at week 16” value [1] was 19, the “Number of subjects, ACR20 Non-responder at week 16” value [2] was 16 and the “Number of subjects, ACR20 Responder at week 16” value [2] was 18. The “Interaction Term for ACR20 response (ratio of odds ratios)” value (12 mg QD vs placebo: BD2 high versus BD2 low, week 16) was 3.40, the “Interaction Term: treatment arm*CRP group, ACR20” value (12 mg QD vs placebo: CRP high versus CRP low) was 1.921 and the “Interaction Term: treatment arm*CRP group, ACR20” value (12 mg QD vs placebo: CRP-high versus CRP-low, adjusted for baseline DAS28) was 1.930. For the same compound, the “Interaction Term for ACR20 response (ratio of odds ratios)” value (12 mg QD vs placebo: IL-17A high versus IL-17A low, week 16) was 2.78, the “Interaction Term for ACR20 response (ratio of odds ratios)” value (12 mg QD vs placebo: IL-19 high versus IL-19 low, week 16) was 7.35 and the Number of subjects (12 mg QD, ACR20 non-responder at week 16, above median baseline BD2 level) was 10. The Number of subjects (12 mg QD, ACR20 non-responder at week 16, above median baseline IL-19 level) was 7, the Number of subjects (12 mg QD, ACR20 non-responder at week 16, below median baseline BD2 level) was 11 and the Number of subjects (12 mg QD, ACR20 non-responder at week 16, below median baseline IL-17A level) was 15. For the same compound, the Number of subjects (12 mg QD, ACR20 non-responder at week 16, below median baseline IL-19 level) was 17, the Number of subjects (12 mg QD, ACR20 responder at week 16, above median baseline BD2 level) was 20 and the Number of subjects (12 mg QD, ACR20 responder at week 16, above median baseline IL-19 level) was 21. The Number of subjects (12 mg QD, ACR20 responder at week 16, below median baseline BD2 level) was 10, the Number of subjects (12 mg QD, ACR20 responder at week 16, below median baseline IL-19 level) was 20 and the “Number of subjects, ACR20 Non-responder at week 16” value [3] was 9. For the same compound, the “Number of subjects, ACR20 Responder at week 16” value [3] was 24, the “Number of subjects, ACR20 Non-responder at week 16” value [4] was 16 and the “Number of subjects, ACR20 Responder at week 16” value [4] was 18. The “Odds Ratio, ACR20 response status” value (6 mg QD vs placebo, not adjusted for baseline disease activity) was 2.456, the “Odds Ratio for ACR20 response” value (6 mg QD vs placebo, week 16) was 2.46 and the “Odds Ratio, ACR20 response status” value (6 mg QD vs placebo, week 16, adjusted for baseline DAS28) was 2.443. For the same compound, the “Odds Ratio, ACR20 response status” value (12 mg QD vs placebo, not adjusted for baseline disease activity) was 3.609, the “Odds Ratio for ACR20 response” value (12 mg QD vs placebo, week 16) was 3.61 and the “Odds Ratio, ACR20 response status” value (12 mg QD vs placebo, week 16, adjusted for baseline DAS28) was 3.618. For the same compound, the “Odds Ratio for ACR20 response” value (deucravacitinib treatment arms combined vs placebo, week 16) was 2.961 and the “Odds Ratio, ACR20 response status” value (treatment arms combined vs placebo) was 2.961.
